Where two headings read alike, the source gives them in different places.

Usually IC50 stands for the concentration needed to halve the response being measured.

Experiment [1] concerns N87 (human gastric carcinoma derived from metastatic liver site). Kind of experiment: Cytotoxicity assay for payloads (MTS), N87 cells. Type of experiment: cell-based. As for the experimental part: (§1) Cancer cell lines were obtained from ATCC (Manassas, Va.). N87 (human gastric carcinoma derived from metastatic liver site). HL60 (leukemia), A375 (melanoma) and HUVEC (human umbilical vein endothelial cells). were grown in RPMI 1640 media. All media were supplemented with 10% fetal bovine serum, 1% sodium pyruvate, and 1% L-glutamine (Invitrogen, Grand Island, N.Y.). Human umbilical vein endothelial cells (HUVEC) were obtained from Lonza (Allendale, N.J.) and maintained in EGM2 media supplemented with EGM-2 SingleQuots (Lonza # CC-4176). All cells were maintained in a humidified incubator (37° C., 5% CO2).
(§2) Cells in 100 μl medium were cultured in a 96-well plate. Cancer cell lines treated with the indicated compounds by adding 50 μl of 3× stocks in duplicate at 10 concentrations. Cells were incubated with compounds for four days, then 30 μl of CellTiter® 96 AQueous One MTS Solution (Promega Cat # G3582) was added to the cells, incubated 1.5 hr at 37° C., then absorbance measured at 490 nm on a Victor plate reader (Perkin Elmer, Waltham, Mass.). Relative cell viability was determined as a percentage of untreated control wells. IC50 values were calculated using four parameter logistic model #203 with XLfit v4.2 (IDBS, Guildford, Surry, UK).

Experiment [2] relates to HL60 (leukemia). The experiment is described as follows: Cytotoxicity assay for payloads (MTS), HL-60 cells. Type of experiment: cell-based. The settings on record: Homo sapiens, 96 h, incubated with compounds for four days, MTS absorbance 490 nm. The method, then:
as §1, §2

Setting [3] is: Homo sapiens, 96 h, N87 cells, incubated with compounds for four days, MTS absorbance 490 nm, read-out: N87 IC50.

As to `Cc1c[nH]c2c(O)cc3c(c12)[C@H](CCl)CN3C(=O)c1ccc(C(=O)N2C[C@@H](CCl)c3c2cc(O)c2ccccc32)s1` [Compound 117, ((S)-1-Chloromethyl-5-hydroxy-1,2-dihydro-benzo[e]indol-3-yl)-[5-((S)-1-chloromethyl-5-hydroxy-8-methyl-1,6-dihydro-2H-pyrrolo[3,2-e]indole-3-carbonyl)-thiophen-2-yl]methanone], the half-inhibitory concentration (IC50) in experiment [1] (setting [3]) worked out at 0.004 nM.

`CC(=O)Oc1cc2c(c3ccccc13)[C@H](CCl)CN2C(=O)CNCC(=O)N1C[C@@H](CCl)c2c1cc(OC(C)=O)c1ccccc21` [Compound 53, Acetic acid (S)-3-{2-[2-((S)-5-acetoxy-1-chloromethyl-1,2-dihydro-benzo[e]indol-3-yl)-2-oxo-ethylamino]-acetyl}-1-chloromethyl-2,3-dihydro-1H-benzo[e]indol-5-1 ester]: the IC50 in experiment [2] amounted to 0.012 nM. On the same count and under the same terms, the same measure for `CC(=O)Oc1cc2c(c3ccccc13)[C@H](CCl)CN2C(=O)[C@]12CCC[C@](C(=O)N3C[C@@H](CCl)c4c3cc(O)c3ccccc43)(C1)C2` [Compound 175, (1S)-1-(chloromethyl)-3-{[(1S,5S)-5-{[(1S)-1-(chloromethyl)-5-hydroxy-1,2-dihydro-3H-benzo[e]indol-3-yl]carbonyl}bicyclo[3.1.1]hept-1-yl]carbonyl}-2,3-dihydro-1H-benzo[e]indol-5-yl acetate]: 11.8 nM. `COC(=O)Oc1cc2c(c3ccccc13)[C@H](CCl)CN2C(=O)c1ccc(C(=O)N2C[C@@H](CCl)c3c2cc(O)c2ccccc32)s1` [Compound 119, (S)-1-(chloromethyl)-3-(5-((S)-1-(chloromethyl)-5-hydroxy-2,3-dihydro-1H-benzo[e]indole-3-carbonyl)thiophene-2-carbonyl)-2,3-dihydro-1H-benzo[e]indol-5-yl methyl carbonate]: the IC50 in experiment [1] (setting [3]) was found to be 0.004 nM. For `O=C(CCc1ccc(CCC(=O)N2C[C@@H](CCl)c3c2cc(O)c2ccccc32)s1)N1C[C@@H](CCl)c2c1cc(O)c1ccccc21` [Compound 146, 3,3′-thiene-2,5-diylbis{1-[(1S)-1-(chloromethyl)-5-hydroxy-1,2-dihydro-3H-benzo[e]indol-3-yl]propan-1-one}], the half-maximal inhibitory concentration (IC50) in experiment [1] (setting [3]) turned out to be 3.1 nM. Regarding `CC(=O)Oc1cc2c(c3ccccc13)[C@H](CCl)CN2C(=O)C12C3C4C1C1C2C3C41C(=O)N1C[C@@H](CCl)c2c1cc(OC(C)=O)c1ccccc21` (stereo partly drawn) [Compound 181, pentacyclo[4.2.0.0~2,5~.0~3,8~.0~4,7~]octane-1,4-diylbis[carbonyl(1S)-1-(chloromethyl)-1,2-dihydro-3H-benzo[e]indole-3,5-diyl] diacetate], the half-inhibitory concentration (IC50) in experiment [1] (setting [3]) was 0.005 nM. As to `CN(C)CCNC(=O)Oc1cc2c(c3ccccc13)[C@H](CCl)CN2C(=O)c1ccc(C(=O)N2C[C@@H](CCl)c3c2cc(O)c2ccccc32)s1` [Compound 123, (S)-1-(chloromethyl)-3-(5-((S)-1-(chloromethyl)-5-hydroxy-2,3-dihydro-1H-benzo[e]indole-3-carbonyl)thiophene-2-carbonyl)-2,3-dihydro-1H-benzo[e]indol-5-yl(2-(dimethylamino)ethyl)carbamate], the IC50 in experiment [1] (Homo sapiens, 96 h, read-out: N87 IC50 (nM)) was found to be 0.003 nM.

`CNCCN(C)C(=O)Oc1cc2c(c3ccccc13)[C@H](CCl)CN2C(=O)c1ccc(C(=O)N2C[C@@H](CCl)c3c2cc(O)c2ccccc32)s1` [Compound 126, (S)-1-(chloromethyl)-3-(5-((S)-1-(chloromethyl)-5-hydroxy-2,3-dihydro-1H-benzo[e]indole-3-carbonyl)thiophene-2-carbonyl)-2,3-dihydro-1H-benzo[e]indol-5-ylmethyl(2-(methylamino)ethyl)carbamate]: the IC50 in experiment [1] (N87 cells, incubated with compounds for four days, MTS absorbance 490 nm, read-out: N87 IC50) came to 0.004 nM. Regarding `CC(=O)OC[C@H]1O[C@@H](Oc2cc3c(c4ccccc24)[C@H](CCl)CN3C(=O)c2ccc(C(=O)N3C[C@@H](CCl)c4c3cc(O)c3ccccc43)s2)[C@H](OC(C)=O)[C@@H](OC(C)=O)[C@H]1OC(C)=O` [Compound 153, (2R,3S,4S,5R,6S)-2-(acetoxymethyl)-6-(((S)-1-(chloromethyl)-3-(5-((S)-1-(chloromethyl)-5-hydroxy-2,3-dihydro-1H-benzo[e]indole-3-carbonyl)thiophene-2-carbonyl)-2,3-dihydro-1H-benzo[e]indol-5-yl)oxy)tetrahydro-2H-pyran-3,4,5-triyl triacetate], the IC50 in experiment [1] (setting [3]) amounted to 4.47 nM. Same read-out and setting: the same measure for `CC(=O)Oc1cc2c(c3ccccc13)[C@H](CCl)CN2C(=O)c1cnc(C(=O)N2C[C@@H](CCl)c3c2cc(OC(C)=O)c2ccccc32)s1` [Compound 71, (1S,1′S)-3,3′-(thiazole-2,5-dicarbonyl)bis(1-(chloromethyl)-2,3-dihydro-1H-benzo[e]indole-5,3-diyl)diacetate]: 0.085 nM; for `O=C(c1csc(C(=O)N2C[C@@H](CCl)c3c2cc(O)c2ccccc32)c1)N1C[C@@H](CCl)c2c1cc(O)c1ccccc21` [Compound 35, (S)-thiophene-2,4-diylbis(((S)-1-(chloromethyl)-5-hydroxy-1H-benzo[e]indol-3(2H)-yl)methanone)]: 1.21 nM.

For the compound `CC(=O)Oc1cc2c(c3ccccc13)[C@H](CCl)CN2C(=O)c1ccc(C(=O)N2C[C@@H](CCl)c3c2cc(OC(C)=O)c2ccccc32)[nH]1` [Compound 68, (1S,1′S)-3,3′-(1H-pyrrole-2,5-dicarbonyl)bis(1-(chloromethyl)-2,3-dihydro-1H-benzo[e]indole-5,3-diyl)diacetate], the IC50 in experiment [1] (setting [3]) came out at 0.033 nM. Consider `O=C(N[C@@H](CCC(=O)N1C[C@@H](CCl)c2c1cc(O)c1ccccc21)C(=O)N1C[C@@H](CCl)c2c1cc(O)c1ccccc21)OCC1c2ccccc2-c2ccccc21` [Compound 60, [(S)-1-((S)-1-Chloromethyl-5-hydroxy-1,2-dihydro-benzo[e]indole-3-carbonyl)-4-((S)-1-chloromethyl-5-hydroxy-1,2-dihydro-benzo[e]indol-3-yl)-4-oxo-butyl]-carbamic acid 9H-fluoren-9-ylmethyl ester], for which the IC50 in experiment [1] (setting [3]) was no less than 10 nM. As for `O=C(c1cncc(C(=O)N2C[C@@H](CCl)c3c2cc(O)c2ccccc32)c1)N1C[C@@H](CCl)c2c1cc(O)c1ccccc21` [Compound 26, (S)-pyridine-3,5-diylbis(((S)-1-(chloromethyl)-5-hydroxy-1H-benzo[e]indol-3(2H)-yl)methanone)], the IC50 in experiment [1] (setting [3]) was no less than 10 nM. Regarding `CC(=O)Oc1cc2c(c3ccccc13)[C@H](CCl)CN2C(=O)[C@H]1C[C@@H](C(=O)N2C[C@@H](CCl)c3c2cc(OC(C)=O)c2ccccc32)C1` [Compound 168, cis-cyclobutane-1,3-diylbis[carbonyl(1S)-1-(chloromethyl)-1,2-dihydro-3H-benzo[e]indole-3,5-diyl] diacetate], the IC50 in experiment [2] worked out at 0.097 nM. As for `O=C(O)[C@H]1O[C@@H](Oc2cc3c(c4ccccc24)[C@H](CCl)CN3C(=O)c2ccc(C(=O)N3C[C@@H](CCl)c4c3cc(O)c3ccccc43)s2)[C@H](O)[C@@H](O)[C@@H]1O` [Compound 164, (2S,3S,4S,5R,6S)-6-(((S)-1-(chloromethyl)-3-(5-((S)-1-(chloromethyl)-5-hydroxy-2,3-dihydro-1H-benzo[e]indole-3-carbonyl)thiophene-2-carbonyl)-2,3-dihydro-1H-benzo[e]indol-5-yl)oxy)-3,4,5-trihydroxytetrahydro-2H-pyran-2-carboxylic acid], the IC50 in experiment [2] was found to be 0.057 nM. Still for that read-out and setting: the same measure for `CC(=O)Oc1cc2c(c3ccccc13)[C@H](CCl)CN2C(=O)C12CCC(C(=O)N3C[C@@H](CCl)c4c3cc(O)c3ccccc43)(CC1)C2` [Compound 134, (1S)-1-(chloromethyl)-3-[(4-{[(1S)-1-(chloromethyl)-5-hydroxy-1,2-dihydro-3H-benzo[e]indol-3-yl]carbonyl}bicyclo[2.2.1]hept-1-yl)carbonyl]-2,3-dihydro-1H-benzo[e]indol-5-yl acetate]: 0.099 nM. Consider `CC(=O)Oc1cc2c(c3ccccc13)[C@H](CCl)CN2C(=O)Cc1ccc(CC(=O)N2C[C@@H](CCl)c3c2cc(OC(C)=O)c2ccccc32)s1` [Compound 160, thiene-2,5-diylbis[(1-oxoethane-2,1-diyl)(1S)-1-(chloromethyl)-1,2-dihydro-3H-benzo[e]indole-3,5-diyl] diacetate], for which the IC50 in experiment [1] (setting [3]) stood at 12.7 nM. On the same count and under the same terms, with `CC(=O)Oc1cc2c(c3ccccc13)[C@H](CCl)CN2C(=O)c1ccc(C(=O)N2C[C@@H](CCl)c3c2cc(O)c2ccccc32)s1` [Compound 170, (1S)-1-(chloromethyl)-3-[(5-{[(1S)-1-(chloromethyl)-5-hydroxy-1,2-dihydro-3H-benzo[e]indol-3-yl]carbonyl}thiophen-2-yl)carbonyl]-2,3-dihydro-1H-benzo[e]indol-5-yl acetate] the figure was 0.005 nM. In the case of `Cn1c(C(=O)N2C[C@@H](CCl)c3c2cc(O)c2ccccc32)ccc1C(=O)N1C[C@@H](CCl)c2c1cc(O)c1ccccc21` [Compound 38, (S)-(1-methyl-1H-pyrrole-2,5-diyl)bis(((S)-1-(chloromethyl)-5-hydroxy-1H-benzo[e]indol-3(2H)-yl)methanone)], the IC50 in experiment [1] (setting [3]) was no less than 10 nM.

(Values after US10086085B2, “Bifunctional cytotoxic agents” (priority 2014, dated 2018).)
